Experimental data: article PMC10211317, “Identification of ARUK2002821 as an isoform-selective PI5P4Kα inhibitor” (RSC Medicinal Chemistry, 2023)

Columns and labels:
Experiment in all cases: Premier Screen kinase panel (MRC PPU)
Type in all cases: biochemical
ABL = ABL (Homo sapiens, UniProt P00519); settings: ABL (Entrez ABL1), read-out: Residual activity (%)
Description: (§1) room temperature with shaking for 30 minutes. The kinase concentration in the eluates was measured by qPCR.
(§2) using ADP-GloTM assay at the MRC PPU International Centre for Kinase Profiling, University of Dundee.
(§3) Conducted by MRC PPU International Centre
(§4) Conducted by MRC PPU International Centre for […]

Aurora A = Aurora A (Homo sapiens, UniProt O14965); settings: Aurora A (Entrez AURKA), read-out: Residual activity (%)
Description: as §1, §2, §3, §4

Aurora B = Aurora B (Homo sapiens, UniProt Q96GD4); settings: Aurora B (Entrez AURKB), read-out: Residual activity (%)
Aurora B, sequence (Q96GD4 whole entry): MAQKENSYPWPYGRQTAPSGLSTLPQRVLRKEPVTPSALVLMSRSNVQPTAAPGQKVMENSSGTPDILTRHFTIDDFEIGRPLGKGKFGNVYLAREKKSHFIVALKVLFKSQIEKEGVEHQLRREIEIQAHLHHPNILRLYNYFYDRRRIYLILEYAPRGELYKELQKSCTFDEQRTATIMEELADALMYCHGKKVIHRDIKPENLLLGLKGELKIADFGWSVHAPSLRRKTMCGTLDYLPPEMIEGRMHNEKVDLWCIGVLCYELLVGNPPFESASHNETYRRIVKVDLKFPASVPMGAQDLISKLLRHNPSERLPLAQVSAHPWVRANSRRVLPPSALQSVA
Description: as §1, §2, §3, §4

BRSK1 = BRSK1 (Homo sapiens, UniProt Q8TDC3); settings: BRSK1 (Entrez BRSK1), read-out: Residual activity (%)
Description: as §1, §2, §3, §4

BRSK2 = BRSK2 (Homo sapiens, UniProt Q8IWQ3); settings: BRSK2 (Entrez BRSK2), read-out: Residual activity (%)
BRSK2, sequence (Q8IWQ3 whole entry): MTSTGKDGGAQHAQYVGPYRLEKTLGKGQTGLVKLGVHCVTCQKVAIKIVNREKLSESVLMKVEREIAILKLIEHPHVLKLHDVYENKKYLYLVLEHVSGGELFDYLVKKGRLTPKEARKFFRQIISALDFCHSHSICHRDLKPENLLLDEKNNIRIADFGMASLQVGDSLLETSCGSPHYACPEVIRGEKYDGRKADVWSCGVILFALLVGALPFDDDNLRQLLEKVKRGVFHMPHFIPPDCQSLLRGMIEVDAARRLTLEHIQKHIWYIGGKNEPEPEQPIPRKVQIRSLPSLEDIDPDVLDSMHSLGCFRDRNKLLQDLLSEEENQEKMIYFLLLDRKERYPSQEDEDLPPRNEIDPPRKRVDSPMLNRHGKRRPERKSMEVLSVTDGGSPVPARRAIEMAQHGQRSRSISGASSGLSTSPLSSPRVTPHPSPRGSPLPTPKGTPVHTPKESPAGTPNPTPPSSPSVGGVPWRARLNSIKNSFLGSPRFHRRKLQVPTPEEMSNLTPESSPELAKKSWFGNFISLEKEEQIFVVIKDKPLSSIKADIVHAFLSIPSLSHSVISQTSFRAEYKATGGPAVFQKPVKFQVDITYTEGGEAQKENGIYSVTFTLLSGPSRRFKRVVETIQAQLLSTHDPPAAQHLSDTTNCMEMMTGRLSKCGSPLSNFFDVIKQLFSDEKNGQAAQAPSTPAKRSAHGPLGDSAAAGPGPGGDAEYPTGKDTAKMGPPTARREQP
Description: as §1, §2, §3, §4

CK1δ = CK1δ (Homo sapiens, UniProt P48730); settings: CK1δ (Entrez CSNK1G2), read-out: Residual activity (%)
Description: as §1, §2, §3, §4

CLK2 = CLK2 (Homo sapiens, UniProt P49760); settings: CLK2 (Entrez CLK2), read-out: Residual activity (%)
Description: as §1, §2, §3, §4

DDR2 = DDR2 (Homo sapiens, UniProt Q16832); settings: DDR2 (Entrez DDR2), read-out: Residual activity (%)
DDR2, sequence (Q16832 22-855): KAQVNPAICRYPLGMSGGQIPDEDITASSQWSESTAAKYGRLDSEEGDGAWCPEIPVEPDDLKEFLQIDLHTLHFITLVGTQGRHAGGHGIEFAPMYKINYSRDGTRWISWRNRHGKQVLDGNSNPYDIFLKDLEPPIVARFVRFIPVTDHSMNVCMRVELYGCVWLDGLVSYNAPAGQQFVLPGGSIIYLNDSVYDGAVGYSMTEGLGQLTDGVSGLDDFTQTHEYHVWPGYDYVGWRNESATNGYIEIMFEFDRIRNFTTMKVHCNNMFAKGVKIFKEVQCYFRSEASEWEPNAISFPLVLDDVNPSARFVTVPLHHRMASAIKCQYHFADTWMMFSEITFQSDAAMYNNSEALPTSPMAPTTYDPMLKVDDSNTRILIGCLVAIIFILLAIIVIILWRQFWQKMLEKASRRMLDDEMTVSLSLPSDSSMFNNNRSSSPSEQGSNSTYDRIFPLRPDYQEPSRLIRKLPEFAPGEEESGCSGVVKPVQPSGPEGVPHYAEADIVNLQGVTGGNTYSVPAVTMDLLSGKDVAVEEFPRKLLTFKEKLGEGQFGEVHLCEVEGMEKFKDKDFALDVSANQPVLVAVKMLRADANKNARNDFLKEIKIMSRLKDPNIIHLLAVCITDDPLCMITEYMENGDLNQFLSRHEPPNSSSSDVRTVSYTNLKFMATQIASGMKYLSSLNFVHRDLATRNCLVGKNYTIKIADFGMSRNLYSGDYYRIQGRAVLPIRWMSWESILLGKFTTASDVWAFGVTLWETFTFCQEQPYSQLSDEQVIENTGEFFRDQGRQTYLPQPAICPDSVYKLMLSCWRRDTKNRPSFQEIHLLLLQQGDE
Description: as §1, §2, §3, §4

EPH-B1 = EPH-B1 (Homo sapiens, UniProt P54762); settings: EPH-B1 (Entrez EPHB1), read-out: Residual activity (%)
Description: as §1, §2, §3, §4

EPH-B3 = EPH-B3 (Homo sapiens, UniProt P54753); settings: EPH-B3 (Entrez EPHB3), read-out: Residual activity (%)
Description: as §1, §2, §3, §4

ERK8 = ERK8 (Homo sapiens, UniProt Q8TD08); settings: ERK8 (Entrez MAPK15), read-out: Residual activity (%)
Description: as §1, §2, §3, §4

HIPK1 = HIPK1 (Homo sapiens, UniProt Q86Z02); settings: HIPK1 (Entrez HIPK1), read-out: Residual activity (%)
Description: as §1, §2, §3, §4

IRR = IRR (Homo sapiens, UniProt P14616); settings: IRR (Entrez INSRR), read-out: Residual activity (%)
Description: as §1, §2, §3, §4

JAK3 = JAK3 (Homo sapiens, UniProt P52333); settings: JAK3 (Entrez JAK3), read-out: Residual activity (%)
Description: as §1, §2, §3, §4

MAPKAP-K3 = MAPKAP-K3 (Homo sapiens, UniProt Q16644); settings: MAPKAP-K3 (Entrez MAPKAPK3), read-out: Residual activity (%)
MAPKAP-K3, sequence (Q16644 whole entry): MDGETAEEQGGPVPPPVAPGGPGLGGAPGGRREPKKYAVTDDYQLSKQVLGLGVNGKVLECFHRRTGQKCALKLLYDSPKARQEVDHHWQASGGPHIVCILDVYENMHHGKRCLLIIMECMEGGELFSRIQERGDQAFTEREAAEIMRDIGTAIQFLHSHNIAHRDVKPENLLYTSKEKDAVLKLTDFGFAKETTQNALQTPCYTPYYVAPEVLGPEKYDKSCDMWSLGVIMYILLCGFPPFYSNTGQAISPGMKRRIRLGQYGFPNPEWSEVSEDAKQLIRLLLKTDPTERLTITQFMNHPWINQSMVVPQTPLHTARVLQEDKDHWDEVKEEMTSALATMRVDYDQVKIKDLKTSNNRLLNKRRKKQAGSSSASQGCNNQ
Description: as §1, §2, §3, §4

MARK1 = MARK1 (Homo sapiens, UniProt Q9P0L2); settings: MARK1 (Entrez MARK1), read-out: Residual activity (%)
Description: as §1, §2, §3, §4

MEKK1 = MEKK1 (Homo sapiens, UniProt Q13233); settings: MEKK1 (Entrez MAP3K1), read-out: Residual activity (%)
Description: as §1, §2, §3, §4

MELK = MELK (Homo sapiens, UniProt Q14680); settings: MELK (Entrez MELK), read-out: Residual activity (%)
Description: as §1, §2, §3, §4

MKK1 = MKK1 (Homo sapiens, UniProt Q02750); settings: MKK1 (Entrez MAP2K1), read-out: Residual activity (%)
Description: as §1, §2, §3, §4

MLK3 = MLK3 (Homo sapiens, UniProt Q16584); settings: MLK3 (Entrez MAP3K11), read-out: Residual activity (%)
MLK3, sequence (Q16584 whole entry): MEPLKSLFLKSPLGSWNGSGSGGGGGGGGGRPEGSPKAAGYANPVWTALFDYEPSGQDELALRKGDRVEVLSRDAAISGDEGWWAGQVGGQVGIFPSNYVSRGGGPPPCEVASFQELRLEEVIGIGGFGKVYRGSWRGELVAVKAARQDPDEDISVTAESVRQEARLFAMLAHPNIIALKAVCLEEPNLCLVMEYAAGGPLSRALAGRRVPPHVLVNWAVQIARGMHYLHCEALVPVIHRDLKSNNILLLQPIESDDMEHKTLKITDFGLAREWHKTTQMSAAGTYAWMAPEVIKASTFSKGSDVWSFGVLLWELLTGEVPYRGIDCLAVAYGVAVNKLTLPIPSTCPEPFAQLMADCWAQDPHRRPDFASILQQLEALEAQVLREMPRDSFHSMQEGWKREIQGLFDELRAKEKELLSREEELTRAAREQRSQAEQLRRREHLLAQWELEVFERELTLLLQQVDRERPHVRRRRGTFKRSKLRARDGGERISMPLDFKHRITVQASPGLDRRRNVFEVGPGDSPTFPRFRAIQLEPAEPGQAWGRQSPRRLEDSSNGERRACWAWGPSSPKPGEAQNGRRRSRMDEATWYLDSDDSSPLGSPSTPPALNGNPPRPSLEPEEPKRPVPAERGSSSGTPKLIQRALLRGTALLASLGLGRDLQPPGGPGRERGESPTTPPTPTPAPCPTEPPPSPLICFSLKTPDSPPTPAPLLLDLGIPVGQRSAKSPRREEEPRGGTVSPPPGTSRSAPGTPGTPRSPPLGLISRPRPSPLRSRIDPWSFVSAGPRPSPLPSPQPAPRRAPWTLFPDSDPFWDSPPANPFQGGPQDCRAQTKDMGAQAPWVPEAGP
Description: as §1, §2, §3, §4

MST3 = MST3 (Homo sapiens, UniProt Q9Y6E0); settings: MST3 (Entrez STK24), read-out: Residual activity (%)
MST3, sequence (Q9Y6E0 whole entry, species assumed): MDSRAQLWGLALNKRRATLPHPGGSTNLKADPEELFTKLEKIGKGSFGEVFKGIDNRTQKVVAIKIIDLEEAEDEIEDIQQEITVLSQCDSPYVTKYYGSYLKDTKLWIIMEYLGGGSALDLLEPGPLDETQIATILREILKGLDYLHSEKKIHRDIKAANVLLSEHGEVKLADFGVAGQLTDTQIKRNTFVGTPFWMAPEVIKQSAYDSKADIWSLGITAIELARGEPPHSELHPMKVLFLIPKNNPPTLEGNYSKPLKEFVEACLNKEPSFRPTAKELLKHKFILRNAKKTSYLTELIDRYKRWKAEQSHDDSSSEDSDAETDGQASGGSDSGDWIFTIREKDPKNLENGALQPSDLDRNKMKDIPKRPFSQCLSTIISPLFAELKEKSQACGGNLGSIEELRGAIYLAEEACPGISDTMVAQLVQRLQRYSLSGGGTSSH
Description: as §1, §2, §3, §4

MST4 = MST4 (Homo sapiens, UniProt Q9P289); settings: MST4 (Entrez STK26), read-out: Residual activity (%)
Description: as §1, §2, §3, §4

PAK4 = PAK4 (Homo sapiens, UniProt O96013); settings: PAK4 (Entrez PAK4), read-out: Residual activity (%)
Description: as §1, §2, §3, §4

PAK6 = PAK6 (Homo sapiens, UniProt Q9NQU5); settings: PAK6 (Entrez PAK6), read-out: Residual activity (%)
Description: as §1, §2, §3, §4

PRK2 = PRK2 (Homo sapiens, UniProt Q16513); settings: PRK2 (Entrez PKN2), read-out: Residual activity (%)
Description: as §1, §2, §3, §4

RSK2 = RSK2 (Homo sapiens, UniProt P51812); settings: RSK2 (Entrez RPS6KA3), read-out: Residual activity (%)
Description: as §1, §2, §3, §4

SIK2 = SIK2 (Homo sapiens, UniProt Q9H0K1); settings: SIK2 (Entrez SIK2), read-out: Residual activity (%)
Description: as §1, §2, §3, §4

SmMLCK = SmMLCK (Homo sapiens, UniProt Q15746); settings: SmMLCK (Entrez MYLK), read-out: Residual activity (%)
Description: as §1, §2, §3, §4

Src = Src (Homo sapiens, UniProt P12931); settings: Src (Entrez SRC), read-out: Residual activity (%)
Description: as §1, §2, §3, §4

VEG-FR = VEG-FR (Homo sapiens, UniProt P17948); settings: VEG-FR (Entrez FLT1), read-out: Residual activity (%)
VEG-FR, sequence (P17948 784-1338 limits assumed): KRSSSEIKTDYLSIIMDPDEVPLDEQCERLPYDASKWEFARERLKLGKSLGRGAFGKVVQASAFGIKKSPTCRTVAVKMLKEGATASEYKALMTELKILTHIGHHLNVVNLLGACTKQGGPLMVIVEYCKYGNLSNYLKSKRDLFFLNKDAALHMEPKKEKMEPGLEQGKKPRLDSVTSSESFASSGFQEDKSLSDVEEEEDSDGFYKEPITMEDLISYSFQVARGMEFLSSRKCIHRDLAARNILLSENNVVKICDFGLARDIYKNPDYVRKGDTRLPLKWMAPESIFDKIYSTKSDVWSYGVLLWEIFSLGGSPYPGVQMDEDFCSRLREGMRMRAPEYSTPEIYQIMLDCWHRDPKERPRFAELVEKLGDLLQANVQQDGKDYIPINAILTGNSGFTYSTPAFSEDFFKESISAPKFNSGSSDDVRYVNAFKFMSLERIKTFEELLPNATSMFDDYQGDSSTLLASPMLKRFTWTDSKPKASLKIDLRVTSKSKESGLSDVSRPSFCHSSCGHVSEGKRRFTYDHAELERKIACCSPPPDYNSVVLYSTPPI
Description: as §1, §2, §3, §4

YES1 = YES1 (Homo sapiens, UniProt P07947); settings: YES1 (Entrez YES1), read-out: Residual activity (%)
YES1, sequence (P07947 whole entry): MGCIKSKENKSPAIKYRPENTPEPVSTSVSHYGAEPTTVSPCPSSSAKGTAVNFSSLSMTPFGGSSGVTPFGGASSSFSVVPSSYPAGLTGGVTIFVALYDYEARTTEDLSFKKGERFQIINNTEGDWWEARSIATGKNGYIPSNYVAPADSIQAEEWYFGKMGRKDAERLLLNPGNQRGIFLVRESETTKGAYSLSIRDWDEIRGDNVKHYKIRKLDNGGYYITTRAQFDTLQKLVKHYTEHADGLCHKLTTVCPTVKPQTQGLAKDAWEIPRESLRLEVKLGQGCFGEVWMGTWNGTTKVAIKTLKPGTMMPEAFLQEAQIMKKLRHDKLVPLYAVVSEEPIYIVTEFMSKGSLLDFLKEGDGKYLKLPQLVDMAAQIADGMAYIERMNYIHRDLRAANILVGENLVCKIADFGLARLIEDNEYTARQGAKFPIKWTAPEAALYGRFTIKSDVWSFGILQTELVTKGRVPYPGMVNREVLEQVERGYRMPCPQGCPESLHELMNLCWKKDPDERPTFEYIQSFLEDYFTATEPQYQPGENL
Description: as §1, §2, §3, §4

COc1ccc(Nc2ncnc3c2ccn3-c2ccc(C)c(C)c2)cc1Cl [compound 36]
remaining activity at 1 µM (ABL): 89% | remaining activity at 1 µM (Aurora A): 81% | remaining activity at 1 µM (Aurora B): 110% | remaining activity at 1 µM (BRSK1): 97% | remaining activity at 1 µM (BRSK2): 111% | remaining activity at 1 µM (CK1δ): 92% | remaining activity at 1 µM (CLK2): 107% | remaining activity at 1 µM (DDR2): 115% | remaining activity at 1 µM (EPH-B1): 126% | remaining activity at 1 µM (EPH-B3): 79% | remaining activity at 1 µM (ERK8): 110% | remaining activity at 1 µM (HIPK1): 104% | remaining activity at 1 µM (IRR): 96% | remaining activity at 1 µM (JAK3): 63% | remaining activity at 1 µM (MAPKAP-K3): 101% | remaining activity at 1 µM (MARK1): 113% | remaining activity at 1 µM (MEKK1): 115% | remaining activity at 1 µM (MELK): 92% | remaining activity at 1 µM (MKK1): 112% | remaining activity at 1 µM (MLK3): 83% | remaining activity at 1 µM (MST3): 124% | remaining activity at 1 µM (MST4): 99% | remaining activity at 1 µM (PAK4): 78% | remaining activity at 1 µM (PAK6): 90% | remaining activity at 1 µM (PRK2): 86% | remaining activity at 1 µM (RSK2): 77% | remaining activity at 1 µM (SIK2): 109% | remaining activity at 1 µM (SmMLCK): 99% | remaining activity at 1 µM (Src): 93% | remaining activity at 1 µM (VEG-FR): 99% | remaining activity at 1 µM (YES1): 98%
